Where a name gives a salt, the structure may show the parent alone. Read-outs that look alike come from different tables or passages of the source.
What was measured:
[1] = biological target: T1, human, citrated, platelet-rich plasma (Homo sapiens, UniProt P05106+P08514); assay: Test (a): inhibition of ADP stimulated platelet aggregation (Born); format: cell-based; details: ADP induced aggregation of human platelet-rich plasma
T1 construct: aggregating human, citrated, platelet-rich plasma; endogenous in cells; host or cells: human platelets in citrated platelet-rich plasma
Method in brief: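 pA2 calculated by comparing ADP EC50-type (50% response) values in presence and absence of compound, averaged across concentrations (generally 10-^5 M to 10-^10 M). Aggregation (Born) induced by ADP in citrated human platelet-rich plasma, giving dose-response curves.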

[2] = biological target: T2, purified human platelet fibrinogen receptor (GPIIb/IIIa) (Homo sapiens, UniProt P05106+P08514); assay: Test (b): GPIIb/IIIa ELISA, inhibition of biotinylated fibrinogen binding; details: purified human platelet GPIIb/IIIa, ELISA
T2 construct: is isolated from human platelet lysates; from tissue
Method in brief: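 Inhibition of biotinylated fibrinogen ([…]) binding to immobilised human platelet fibrinogen receptor, purified by KYGRGDS peptide affinity chromatography, was measured after 2 h at 30 °C. Readout: streptavidin–biotin-HRP colour with TMB at […]; value expressed as pIC50.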

[3] = read-out: Test (a): pA2 value indicating potency of platelet aggregation inhibition (converted)
[4] = read-out: Test (b): pIC50 (-log(IC50)), 50% inhibition of biotinylated fibrinogen binding to GPIIb/IIIa (converted)

T2 sequence (P08514 32-887 limits assumed): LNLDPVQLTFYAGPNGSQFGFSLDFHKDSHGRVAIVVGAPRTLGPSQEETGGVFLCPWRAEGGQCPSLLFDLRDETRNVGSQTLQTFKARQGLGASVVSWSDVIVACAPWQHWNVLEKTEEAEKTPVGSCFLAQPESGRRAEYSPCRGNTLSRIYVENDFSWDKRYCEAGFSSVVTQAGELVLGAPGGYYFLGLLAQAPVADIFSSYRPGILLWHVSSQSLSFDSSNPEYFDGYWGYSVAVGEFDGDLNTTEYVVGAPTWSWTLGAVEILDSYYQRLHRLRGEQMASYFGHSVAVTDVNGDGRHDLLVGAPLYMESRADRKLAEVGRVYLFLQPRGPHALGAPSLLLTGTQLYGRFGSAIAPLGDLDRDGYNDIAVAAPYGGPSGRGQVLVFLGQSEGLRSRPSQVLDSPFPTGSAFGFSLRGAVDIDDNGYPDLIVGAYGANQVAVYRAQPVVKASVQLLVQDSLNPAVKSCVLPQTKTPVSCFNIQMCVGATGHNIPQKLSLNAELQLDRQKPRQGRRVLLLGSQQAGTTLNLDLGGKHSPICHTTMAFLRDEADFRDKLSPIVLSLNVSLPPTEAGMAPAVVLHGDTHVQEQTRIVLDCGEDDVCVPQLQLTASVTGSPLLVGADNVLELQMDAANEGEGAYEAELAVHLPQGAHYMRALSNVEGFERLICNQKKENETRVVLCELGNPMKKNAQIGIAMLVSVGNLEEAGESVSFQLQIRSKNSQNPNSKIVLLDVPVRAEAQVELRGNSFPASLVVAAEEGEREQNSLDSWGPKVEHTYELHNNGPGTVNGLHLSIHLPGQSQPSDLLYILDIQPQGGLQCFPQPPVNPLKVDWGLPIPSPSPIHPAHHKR
T2 sequence (P08514 891-1039 limits assumed): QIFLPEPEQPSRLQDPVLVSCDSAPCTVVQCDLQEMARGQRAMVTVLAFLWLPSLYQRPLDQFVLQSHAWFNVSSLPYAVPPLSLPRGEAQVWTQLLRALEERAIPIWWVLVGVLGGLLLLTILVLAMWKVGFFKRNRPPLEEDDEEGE
T2 sequence (P05106 27-788): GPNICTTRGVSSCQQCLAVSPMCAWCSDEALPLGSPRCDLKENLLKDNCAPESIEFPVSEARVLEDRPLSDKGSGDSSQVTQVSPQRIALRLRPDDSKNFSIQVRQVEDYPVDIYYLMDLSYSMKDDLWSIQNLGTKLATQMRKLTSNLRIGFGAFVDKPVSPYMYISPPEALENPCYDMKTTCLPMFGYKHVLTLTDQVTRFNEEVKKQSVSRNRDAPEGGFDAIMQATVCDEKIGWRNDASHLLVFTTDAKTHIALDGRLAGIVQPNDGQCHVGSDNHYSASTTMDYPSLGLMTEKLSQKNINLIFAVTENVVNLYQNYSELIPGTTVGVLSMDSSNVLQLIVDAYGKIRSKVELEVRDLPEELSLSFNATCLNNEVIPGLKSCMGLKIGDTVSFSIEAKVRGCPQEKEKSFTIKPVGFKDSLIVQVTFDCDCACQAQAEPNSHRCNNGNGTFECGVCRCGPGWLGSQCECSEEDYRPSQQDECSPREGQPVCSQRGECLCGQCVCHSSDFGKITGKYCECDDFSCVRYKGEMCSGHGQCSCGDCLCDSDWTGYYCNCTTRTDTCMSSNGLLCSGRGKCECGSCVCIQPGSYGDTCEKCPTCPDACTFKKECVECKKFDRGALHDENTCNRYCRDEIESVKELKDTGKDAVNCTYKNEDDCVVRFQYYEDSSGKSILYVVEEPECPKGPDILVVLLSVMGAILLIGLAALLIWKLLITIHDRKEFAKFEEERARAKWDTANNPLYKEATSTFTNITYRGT
T1 sequence (P08514 32-887 limits assumed): as the sequence (P08514 32-887 limits assumed) above
T1 sequence (P08514 891-1039 limits assumed): as the sequence (P08514 891-1039 limits assumed) above
T1 sequence (P05106 27-788): as the sequence (P05106 27-788) above

Row | Structure (SMILES) | Kb [1, 3] | IC50 [2, 4] | Kb ([1]; Test (a): pA2 value indicating potency of platelet aggregation inhibition) | IC50 ([2]; Test (b): pIC50 (-log(IC50)), 50% inhibition of biotinylated fibrinogen binding to GPIIb/IIIa) | Test (b): pIC50 (-log(IC50)), 50% inhibition of biotinylated fibrinogen binding to GPIIb/IIIa [2]
1 | CCCCS(=O)(=O)NC(Cc1ccc(C(=O)CN2CCN(c3ccncc3)CC2)cc1)C(=O)O (racemic) [Example 67, 2-RS-(n-Butylsulphonylamino)-3-[4-[2-[4-(4-pyridyl)piperazine-1-yl]acetyl]phenyl]propionic acid] | 0.00251 µM | 0.00316 µM |  |  | 
2 | COC(=O)COc1ccc(C(=O)C(C)N2CCN(c3ccncc3)CC2)cc1 (racemic) [Example 16, (RS) Methyl 4-[2-[4-(4-pyridyl)piperazin-1-yl]-2-methylacetyl]phenoxyacetate] |  |  | 0.158 µM | 0.2 µM | 
3 | O=C(O)C1CCCC(Oc2ccc(N3CCN(c4ccncc4)CC3)cc2)C1 (stereo not drawn) [Example 237, 3-[4-[4-(Pyridyl)piperazin-1-yl]phenoxy]cyclohexane carboxylic acid] | 0.794 µM | 0.0316 µM |  |  | 
4 | COC(=O)C(Oc1ccc(C(=O)CN2CCN(c3ccncc3)CC2)cc1)C(=O)OC [Example 140, Dimethyl 4-[2-[4-(4-pyridyl)piperazin-1-yl]acetyl]phenoxymalonate] | 1.58 µM | 0.501 µM |  |  | 
5 | COC(=O)CNC(=O)COc1ccc(C(=O)CN2CCN(c3ccncc3)CC2)cc1 [Example 146, Methyl N-[4-[2-[4-(4-pyridyl)piperazin-1-yl]acetyl]phenoxyacetyl]glycinate] | 7.94 µM | 6.31 µM |  |  | 
6 | CC(C)(C)c1cc(C(=O)CN2CCN(c3ccncc3)CC2)cc(C(C)(C)C)c1OCC(=O)O [Example 130, 4-[2-[4-(4-Pyridyl)piperazin-1-yl]acetyl]-2,6-di-tert-butylphenoxyacetic acid] | > 100 µM | 3.98 µM |  |  | 
7 | O=C(O)[C@H]1CC[C@H](Oc2ccc(N3CCN(c4ccncc4)CC3)cc2)CC1 [Example 231, Trans-4-[4-[4-(4-pyridyl)piperazin-1-yl]phenoxy]cyclohexane carboxylic acid] | 0.2 µM | 0.0316 µM |  |  | 
8 | O=C(O)C1CCCN(C(=O)c2ccc(N3CCN(c4ccncc4)CC3)cc2)C1 (stereo not drawn) [Example 235, 4-[(4-Pyridyl)piperazin-1-yl]benzoylnipecotic acid] | 6.31 µM | 0.2 µM |  |  | 
9 | CCCCS(=O)(=O)N[C@@H](Cc1ccc(OCCCC2CCN(c3ccncc3)CC2)cc1)C(=O)OC [Example 81, Methyl 2-S-(n-butylsulphonylamino)-3-[4-[3-[1-(4-pyridyl)piperidin-4-yl]propoxy]phenyl]propionate] | 15.8 µM | 0.2 µM |  |  | 
10 | O=C(O)CCC1CCN(C(=O)CN2CCN(c3ccncc3)CC2)CC1 [Example 109, 3-[1-[2-[4-(4-Pyridyl)piperazin-1-yl]acetyl]piperidin-4-yl]propanoic acid] | 0.316 µM | 0.631 µM |  |  | 
11 | COC(=O)CCCCc1ccc(CN2CCN(c3ccncc3)CC2)cc1 [Example 179, Methyl 5-[4-[4-(4-pyridyl)piperazin-1-yl]methylphenyl]pentanoate] | 15.8 µM | 3.98 µM |  |  | 
12 | COC(=O)[C@H](Cc1ccccc1)NC(=O)c1ccc(N2CCN(c3ccncc3)CC2)cc1 [Example 190, N[4-[(4-Pyridyl)piperazin-1-yl]benzoyl]-L-phenylalanine, methyl ester] | 63.1 µM | 20 µM |  |  | 
13 | Cc1ccc(S(=O)(=O)NCc2ccc(NC(=O)C3CCN(c4ccncc4)CC3)cc2)cc1 [Example 171, N-[4[4-[1-(4-Pyridyl)piperidin-4yl]carboxyamidophenyl]methyl]-4-methylphenylsulphonamide] | 6.31 µM | > 100 µM |  |  | 
14 | CCOC(=O)c1ccc(C(=O)CN2CCN(c3ccncc3)CC2)cc1 [Example 131, Ethyl 4-[2-[4-(4-pyridyl)piperazin-1-yl]acetyl]benzoate] | 25.1 µM | 31.6 µM |  |  | 
15 | COC(=O)COc1ccc(C(=O)CN2CCN(c3ccncc3)CC2)cc1OCC(=O)OC [Example 3] | 0.501 µM | 0.251 µM |  |  | 
16 | O=C(O)COc1ccc2c(=O)c(N3CCN(c4ccncc4)CC3)cn(Cc3ccccc3)c2c1 [Example 49, [1-Benzyl-3-[4-(4-pyridyl)piperazin-1-yl]-4-quinolon-7-yl]oxyacetic acid trifluoroacetate salt] | 0.0794 µM | 0.00631 µM |  |  | 

Row | Structure (SMILES) | Kb [1, 3] | IC50 [2, 4] | Kb ([1]; Test (a): pA2 value indicating potency of platelet aggregation inhibition) | IC50 ([2]; Test (b): pIC50 (-log(IC50)), 50% inhibition of biotinylated fibrinogen binding to GPIIb/IIIa) | Test (b): pIC50 (-log(IC50)), 50% inhibition of biotinylated fibrinogen binding to GPIIb/IIIa [2]
17 | CCOC(=O)CCCCOc1cccc(N2CCN(c3ccncc3)CC2)c1 [Example 228, Ethyl 3-[4-(4-pyridyl)piperazin-1-yl]phenoxypentanoate] | 10 µM | > 100 µM |  |  | 
18 | COCCNC(=O)COC1CCN(C(=O)CN2CCN(c3ccncc3)CC2)CC1 [Example 107, N-2-Methoxyethyl 1-[2-[4-(4-pyridyl)piperazin-1-yl]acetyl]-piperidin-4-yloxyacetamide] | 31.6 µM | > 100 µM |  |  | 
19 | Cc1cc(N2CCN(CC(=O)c3ccc(OCC(=O)O)cc3)CC2)cc(C)n1 [Example 154, 4-[2-[4-(2,6-Dimethylpyrid-4-yl)piperazin-1-yl]actyl]phenoxyacetic acid, dihydrobromide] | 10 µM | 2.51 µM |  |  | 
20 | CCCCS(=O)(=O)NC(CC1CCN(C(=O)CN2CCN(c3ccncc3)CC2)CC1)C(=O)O (racemic) [Example 111] | 5.01 µM | 6.31 µM |  |  | 
21 | O=C(O)C[C@@H](NC(=O)c1ccc(N2CCN(c3ccncc3)CC2)cc1)C(=O)NCCc1ccccc1 [Example 193] | 39.8 µM | 0.251 µM |  |  | 
22 | Cc1ccc(S(=O)(=O)NCC2CCN(C(=O)CN3CCN(c4ccncc4)CC3)CC2)cc1 [Example 222, N-[1-[2-[4-(4-Pyridyl)piperazin-1-yl]acetyl]piperidin-4-ylmethyl]-4-methylphenylsulphonamide] | 0.316 µM | 2.51 µM |  |  | 
23 | O=C(O)COc1ccc(C(=O)CN2CCN(c3ccncc3)CC2)cc1 [Example 2] | 0.0501 to 0.0794 µM | 0.0251 µM |  |  | 7.6
24 | CCOC(=O)CCCOc1cccc(N2CCN(c3ccncc3)CC2)c1 [Example 226, Ethyl 3-[4-(4-pyridyl)piperazin-1-yl]phenoxybutyrate] | 20 µM | 3.16 µM |  |  | 
25 | CCOC(=O)CCCCOc1ccc(N2CCN(c3ccncc3)CC2)cc1 [Example 52] | 10 µM | > 100 µM |  |  | 
26 | COC(=O)COc1ccc(C(=O)CN2CCN(c3ccncc3)CC2)c(C)c1 [Example 118, Methyl 4-[2-[4-(4-pyridyl)piperazin-1-yl]acetyl]-3-methylphenoxyacetate] | 0.2 µM | 0.398 µM |  |  | 
27 | O=C(O)COc1ccc(NC(=O)C2CCN(c3ccncc3)CC2)cc1 [Example 164] | 0.00794 µM | 0.0398 to 0.0631 µM |  |  | 
28 | COc1cc(OCC(=O)O)ccc1C(=O)CN1CCN(c2ccncc2)CC1 [Example 128, 4-[2-[4-(4-Pyridyl)piperazin-1-yl]acetyl]-3-methoxy-phenoxyacetic acid, dihydrochloride] | 0.158 µM | 0.501 µM |  |  | 
29 | O=C(O)CCNC(=O)c1cccc(N2CCN(c3ccncc3)CC2)n1 [Example 74, 3-[6-[4-(4-Pyridyl)piperazin-1-yl]pyrid-2-yl]carboxamidopropionic acid] | 10 µM | 2 µM |  |  | 
30 | CCOC(=O)CCCOc1ccc(N2CCN(c3ccncc3)CC2)cc1 [Example 50, Ethyl 4-[4-[4-(4-pyridyl)piperazin-1-yl]phenoxy]butyrate] | 0.794 to 1 µM | > 100 µM |  |  | 
31 | COCCNC(=O)COc1ccc(C(=O)CN2CCN(c3ccncc3)CC2)cc1 [Example 144, 2-[4-[2-[4-(4-Pyridyl)piperazin-1-yl]acetyl]phenoxy]-N-(2-methoxymethyl)-acetamide] | 5.01 µM | 5.01 µM |  |  | 

From patent US5750754A, “Heterocyclic compounds” (Zeneca Limited, priority 1993, dated 1998)
